Experiment [1] has as its target T1, hASIC1a (Homo sapiens, UniProt P78348).
T1 construct: expressed in transfected cells; host or cells: Xenopus laevis oocytes, nuclear microinjection of an expression vector such as pCDNA3
T1 sequence (P78348 1-528): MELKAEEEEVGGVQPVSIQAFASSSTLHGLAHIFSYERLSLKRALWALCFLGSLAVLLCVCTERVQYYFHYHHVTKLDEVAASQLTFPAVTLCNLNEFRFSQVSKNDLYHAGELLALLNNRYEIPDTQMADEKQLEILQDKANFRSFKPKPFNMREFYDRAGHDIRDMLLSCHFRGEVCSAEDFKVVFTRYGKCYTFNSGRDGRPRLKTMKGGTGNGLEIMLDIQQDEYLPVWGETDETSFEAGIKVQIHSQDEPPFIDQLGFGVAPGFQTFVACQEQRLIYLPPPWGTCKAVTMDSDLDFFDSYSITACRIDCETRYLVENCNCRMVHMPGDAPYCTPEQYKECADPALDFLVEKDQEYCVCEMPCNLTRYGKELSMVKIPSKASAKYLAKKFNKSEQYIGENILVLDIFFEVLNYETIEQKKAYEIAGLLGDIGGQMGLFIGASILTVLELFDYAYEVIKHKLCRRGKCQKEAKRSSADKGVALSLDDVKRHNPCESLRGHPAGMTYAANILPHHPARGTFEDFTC
As to the kind of experiment: Two-electrode voltage clamp in Xenopus laevis oocytes expressing gated ion channels (Xo, Example 3). Format: cell-based. The conditions noted are these: for inhibition at 50 µM: read-out: % inh. at 50 μM (Xo). As to the method: Two-electrode voltage clamp electrophysiological assays in Xenopus laevis oocytes expressing gated ion channels are performed as follows:
Oocytes are surgically removed from adult Xenopus laevis and treated for 2 h at room temperature with 1 mg/ml type I collagenase (Sigma) in Barth's solution under mild agitation. Selected oocytes at stage IV-V are defolliculated manually before nuclear microinjection of 2.5-5 ng of a suitable expression vector, such as pCDNA3, comprising the nucleotide sequence encoding a gated ion channel subunit protein. In such an experiment, the oocytes express homomultimeric proton-gated ion channels on their surface. In an alternate experiment, one, two, three or more vectors comprising the coding sequences for distinct gated ion channel subunits are co-injected in the oocyte nuclei. In the latter case, oocytes express heteromultimeric proton-gated ion channels. […] Once impaled with the microelectrodes, oocytes are continuously superfused at 10-12 ml/min with a modified Ringer's solution containing 97 mM NaCl, 2 mM KCl, 1.8 mM CaCl2, and 10 mM HEPES brought to pH 7.4 with NaOH (Control Ringer). Test Ringer solution is prepared by replacing HEPES with MES and adjusting the pH to the desired acidic value. Compounds of the present invention are prepared in both the Control and Test Ringer solutions and applied to oocytes at room temperature through a computer-controlled switching valve system. […] Similarly, recordings can also be acquired in an automated multichannel oocytes system as the OpusExpress™ (Molecular Devices, Sunnyvale, USA).
In general terms: Two-electrode voltage clamp is typically applied to oocytes expressing channels or transporters.

Experiment [2] has as its target T1, hASIC1a. In words: Whole cell patch clamp in HEK293 cells transfected with hASIC1a (Example 2). The conditions noted are these: six point dose-response, whole cell patch clamp (FIG. 1B), read-out: IC50, inhibition of acid-induced hASIC1a activity. Format: cell-based. The protocol: Another example of an in vitro assessment method consists of using mammalian heterologous expression systems, which are known to the skilled in the art, and include a variety of mammalian cell lines such as COS, HEK, e.g., HEK293and/or CHO, cells. Cell lines are transfected with gated ion channel(s) and used to perform electrophysiology as follows:
All experiments are performed at room temperature (20-25° C.) in voltage clamp using conventional whole cell patch clamp methods (Neher, E., et al. (1978) Pfluegers Arch 375:219-228).
The amplifier used is the EPC-9 (HEKA-electronics, Lambrect, Germany) run by a Macintosh G3 computer via an ITC-16 interface. Experimental conditions are set with the Pulse-software accompanying the amplifier. […]
Coverslips with the cells are transferred to a 15 μl experimental chamber mounted on the stage of an inverted microscope (IMT-2, Olympus) supplied with Nomarski optics. […] The cells are held at a holding voltage of −60 mV and at the start of each experiment the current is continuously measured for 45 s to ensure a stable baseline. […] Current amplitudes are measured at the peak of the responses, and effect of the compounds is calculated as the amplitude at compound equilibrium divided by the amplitude of the current evoked by the pulse just before the compound is included. […]
Background: In patch-clamp work, channel activity is measured electrically.

The subject of experiment [3] is thermal hyperalgesia from carrageenan-induced paw inflammation. In words: Carrageenan model, thermal hyperalgesia (Hargreaves' assay). It is filed as in vivo, rat. The protocol: Acute inflammatory hyperalgesia is induced in rats by unilateral injection of […] of a 3% solution of 1-carrageenan into the plantar surface of the left hind paw 2-4 h prior to testing. Thermal nociceptive thresholds are determined according to the method described elsewhere (Hargreaves et al., 1988). Briefly, through the glass surface, a radiant heat source (8 V, 50 W projector bulb) is focused onto the plantar surface of the hind paw. The rat's paw-withdrawal latency to this stimulus is recorded to the nearest 0.1 s. Each latency score is an average of three trials, which are separated by at least 5 min. In all rats, both the injured and uninjured hind paws are similarly tested, allowing direct comparisons between inflamed and non-inflamed paws.

Where [4] appears, read: Xenopus laevis oocytes, two-electrode voltage clamp.
[5] abbreviates: Xenopus laevis oocytes, two-electrode voltage clamp, Table 1, read-out: IC50 (Xo).

pIC50: −log10 of the molar value.

On to `CCN1CCc2c(-c3ccccc3)cc3c(c2C1)NC(=O)C3=CNCCO` [Compound 4], for which, on hASIC1a [1] (setting [4]), the inhibition at 50 µM is below 25%.

On to `CCN1CCc2c(-c3ccccc3)cc3c(c2C1)NC(=O)C3=CNC` [Compound 3], for which, at hASIC1a [1] (setting [4]), the inhibition at 50 µM was below 25%. On to `CCN1CCc2c(-c3ccccc3)cc3c(c2C1)NC(=O)C3SC` (stereo not drawn) [Compound 1], for which, at hASIC1a [1] (setting [4]), the inhibition at 50 µM was 25 to 45%. As usually defined, the pIC50 is the IC50 on a negative log10 scale, so that one unit is a factor of ten. With `CCN1CCc2c(-c3cc(F)ccc3OC)cc3cc[nH]c3c2C1` [Compound 7], the pIC50 at hASIC1a [1] (setting [5]) was below 4.30. Still for that read-out and setting: in the case of `CCN1CCc2c(-c3ccccc3)cc3c(N)n[nH]c3c2C1` [Compound 6] it was below 4.30; in that of `CCN1CCc2c(-c3ccccc3)cc3c(C(N)=O)c[nH]c3c2C1` [Compound 11], below 4.30; in that of `CCN1CCc2c(-c3ccccc3)cc3cc[nH]c3c2C1` [Compound 9], below 4.30.

Take `CCN1CCc2c(-c3ccccc3)cc3c(C=O)c[nH]c3c2C1` [Compound 10]: the pIC50 on hASIC1a [1] (setting [5]) was below 4.30. `CCN1CCc2c(-c3ccccc3)cc3c(c2C1)NC(=O)C3` [Compound 2]: the inhibition at 50 µM on hASIC1a [1] (setting [4]) was below 25%.

What is called ED50 is the dose at which the effect has come halfway, by size or by number of responders. Low values mean greater potency, high ones weaker potency. With `CCN1CCc2c(-c3ccccc3)cc3c(c2C1)NC(=O)C3=CN` [Compound 5], the inhibition at 50 µM on hASIC1a [1] (setting [4]) is above 50%. Besides, the pIC50 was 5.00 at hASIC1a [1] (three point dose-response, acid-induced hASIC1a currents in Xenopus laevis oocytes (FIG. 1A), read-out: IC50, half maximal inhibition of the acid-evoked response in hASIC1a) and 4.82 at hASIC1a [2]. In experiment [3] (75 mg/kg s.c., given 30 min prior to carrageenan, 2-4 hours post-carrageenan, versus control paw level), the “effect on thermal hyperalgesia” value is given as “completely reversed”. In experiment [3] (Rattus norvegicus, sc, 30 min prior to carrageenan, tested 2, 3 and 4 h post carrageenan), this compound came in with an ED50 of around 50 mg/kg. Consider `CCN1CCc2c(-c3cc(F)ccc3OC)cc3c(C=O)c[nH]c3c2C1` [Compound 8], for which, on hASIC1a [1] (setting [5]), the pIC50 is below 4.30.
